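Protocol summary: plate cells (96-well), add compound at 5 concentrations, incubate 48 h, interpolate endpoints linearly. The concentration for full growth arrest is given as TGI.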
Legend:
Test in all cases: NCI tumour cell line growth inhibition, 48 h
786-0 renal = tested on: 786-0 renal
A498 renal = tested on: A498 renal
A549 NSCLC = tested on: A549 NSCLC
ACHN renal = tested on: ACHN renal
BT-549 breast = tested on: BT-549 breast
CAKI-1 renal = tested on: CAKI-1 renal
CCRF-CEM leukemia = tested on: CCRF-CEM leukemia
COLO 205 colon = tested on: COLO 205 colon
DU-145 prostate = tested on: DU-145 prostate
EKVX NSCLC = tested on: EKVX NSCLC
HCC-2998 colon = tested on: HCC-2998 colon
HCT-116 colon = tested on: HCT-116 colon
HCT-15 colon = tested on: HCT-15 colon
HL-60(TB) leukemia = tested on: HL-60(TB) leukemia
HOP-62 NSCLC = tested on: HOP-62 NSCLC
HOP-92 NSCLC = tested on: HOP-92 NSCLC
HS 578T breast = tested on: HS 578T breast
HT29 colon = tested on: HT29 colon
IGROV1 ovarian = tested on: IGROV1 ovarian
K-562 leukemia = tested on: K-562 leukemia
KM12 colon = tested on: KM12 colon
LOX IMVI melanoma = tested on: LOX IMVI melanoma
M14 melanoma = tested on: M14 melanoma
MALME-3M melanoma = tested on: MALME-3M melanoma
MCF7 breast = tested on: MCF7 breast
MDA-MB-231 breast = tested on: MDA-MB-231 breast
MDA-MB-435 = tested on: MDA-MB-435
MDA-N = tested on: MDA-N
MOLT-4 leukemia = tested on: MOLT-4 leukemia
NCI-H226 lung = tested on: NCI-H226 lung
NCI-H23 lung = tested on: NCI-H23 lung
NCI-H460 lung = tested on: NCI-H460 lung
NCI-H522 lung = tested on: NCI-H522 lung
OVCAR-3 ovarian = tested on: OVCAR-3 ovarian
OVCAR-4 ovarian = tested on: OVCAR-4 ovarian
OVCAR-5 ovarian = tested on: OVCAR-5 ovarian
OVCAR-8 ovarian = tested on: OVCAR-8 ovarian
PC-3 prostate = tested on: PC-3 prostate
RPMI-8226 leukemia = tested on: RPMI-8226 leukemia
SF-268 CNS = tested on: SF-268 CNS
SF-295 CNS = tested on: SF-295 CNS
SF-539 CNS = tested on: SF-539 CNS
SK-MEL-2 melanoma = tested on: SK-MEL-2 melanoma
SK-MEL-28 melanoma = tested on: SK-MEL-28 melanoma
SK-MEL-5 melanoma = tested on: SK-MEL-5 melanoma
SK-OV-3 ovarian = tested on: SK-OV-3 ovarian
SNB-19 CNS = tested on: SNB-19 CNS
SNB-75 CNS = tested on: SNB-75 CNS
SR leukemia = tested on: SR leukemia
SW-620 colon = tested on: SW-620 colon
T-47D breast = tested on: T-47D breast
TK-10 renal = tested on: TK-10 renal
U251 CNS = tested on: U251 CNS
UACC-257 melanoma = tested on: UACC-257 melanoma
UACC-62 melanoma = tested on: UACC-62 melanoma
UO-31 renal = tested on: UO-31 renal
NCI/ADR-RES ovarian = tested on: NCI/ADR-RES ovarian
RXF 393 renal = tested on: RXF 393 renal
SN12C renal = tested on: SN12C renal

Measured: TGI

COc1ccc2cc(NC(=O)Nn3cnnc3)ccc2c1
not listed: NCI/ADR-RES ovarian | RXF 393 renal | SN12C renal
> 100 µM: all other assays above

CN(NC(=O)c1ccc(Cl)cc1)C1=NCCCCN1
not listed: DU-145 prostate | SN12C renal
> 100 µM: all other assays above

COc1ccc(/C=C2\N=C(N3CCOCC3)NC2=O)cc1
not listed: A498 renal | K-562 leukemia | NCI-H460 lung | SK-MEL-5 melanoma
> 100 µM: all other assays above

— PubChem BioAssay (NCI)
